In publication PMC6145842 (Biochemical and biophysical research communications, 2018):

Target: T1, DXO (Mus musculus, UniProt O70348)
T1 sequence (O70348 1-397): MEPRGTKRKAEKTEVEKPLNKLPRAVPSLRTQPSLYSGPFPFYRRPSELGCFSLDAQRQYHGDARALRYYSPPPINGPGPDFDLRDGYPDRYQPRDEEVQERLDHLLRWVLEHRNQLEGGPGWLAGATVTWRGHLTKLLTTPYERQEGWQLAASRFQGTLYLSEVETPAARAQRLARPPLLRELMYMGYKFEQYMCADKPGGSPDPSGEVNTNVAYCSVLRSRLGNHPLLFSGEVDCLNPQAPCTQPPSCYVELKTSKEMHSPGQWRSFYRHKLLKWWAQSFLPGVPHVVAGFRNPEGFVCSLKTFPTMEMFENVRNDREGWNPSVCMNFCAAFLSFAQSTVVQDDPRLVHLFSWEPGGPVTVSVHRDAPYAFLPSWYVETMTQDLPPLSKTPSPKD
Assay: crystal structure at […] Å
Assay type: binding

- Kd: 20 to 30 mM
SMILES: Nc1ncnc2c1ncn2[C@@H]1O[C@H](COP(=O)(O)O)[C@@H](OP(=O)(O)O)[C@H]1O [pAp, adenosine 3’,5’-bisphosphate]
